Here are results for 18 compounds from patent US12409171B2, “Pharmaceutically active pyrazolo-pyridone modulators of DCN1/2-mediated cullin neddylation” (UNIVERSITY OF KENTUCKY RESEARCH FOUNDATION, priority 2019, dated 2025).

Usually EC50 stands for the concentration needed to bring the measured effect to its halfway point.

For this assay, the target named is DCN1 (Homo sapiens (Human), UniProt Q96GG9). The experiment in a line: TR-FRET binding assay (biotin-DCN1 / Ac-UBE2M12-AlexaFluor488). The following applies: mean ± SD (n); read-out: DCN1_TRFRET Mean EC50. An outline of the steps: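 Biotinylated DCN1 binding to Ac-UBE2M12-AlexaFluor488 read by TR-FRET; assay cocktail pre-incubated 1 h at room temperature before compounds added from DMSO stocks by pin transfer. IC50 is the mean of three replicates ± SD; compounds tested in triplicate or more.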
Chain of DCN1 (Q96GG9 whole entry): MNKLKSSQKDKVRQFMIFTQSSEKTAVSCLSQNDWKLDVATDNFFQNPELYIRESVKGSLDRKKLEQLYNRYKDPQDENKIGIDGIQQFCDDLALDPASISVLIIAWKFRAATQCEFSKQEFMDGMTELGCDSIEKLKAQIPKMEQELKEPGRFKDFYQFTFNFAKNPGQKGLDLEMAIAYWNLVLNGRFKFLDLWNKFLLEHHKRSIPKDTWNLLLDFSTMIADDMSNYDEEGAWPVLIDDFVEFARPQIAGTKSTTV
In general terms: TR-FRET usually uses a lanthanide donor and a delayed reading to cut background.
Consider `CCN1C(=O)[C@@H](NC(=O)c2cccc([N+](=O)[O-])c2)[C@@H](c2ccc(F)cc2)c2c(C)nn(-c3ccccc3)c21` [RG-0013844, N-[(4S,5S)-7-ethyl-4-(4-fluorophenyl)-3-methyl-6-oxo-1-phenyl-1H,4H,5H,6H,7H-pyrazolo[3,4-b]pyridin-5-yl]-3-nitrobenzamide], for which the EC50 turned out to be 1.98 ± 0.134 µM. On to `Cc1nn(-c2ccccc2)c2c1[C@H](c1ccc(F)cc1)[C@H](NC(=O)c1cccc(C(F)(F)F)c1)C(=O)N2CO` [RG-0013981, N-[(4S,5S)-4-(4-fluorophenyl)-7-(hydroxymethyl)-3-methyl-6-oxo-1-phenyl-1H,4H,5H,6H,7H-pyrazolo[3,4-b]pyridin-5-yl]-3-(trifluoromethyl)benzamide], for which the EC50 was greater than 36.5 µM. `CCC(C)n1nc(C)c2c1N(C(C)=O)C(=O)[C@@H](NC(=O)c1cccc(C)c1)[C@H]2c1ccc(F)cc1` (stereo partly drawn) [RG-0005665, N-[(4S,5S)-7-acetyl-1-(butan-2-yl)-4-(4-fluorophenyl)-3-methyl-6-oxo-1H,4H,5H,6H,7H-pyrazolo[3,4-b]pyridin-5-yl]-3-methylbenzamide]: the EC50 was 5.31 ± 0.85 µM. `CCN1C(=O)[C@@H](NC(=O)c2cccc(C(F)(F)F)c2)[C@@H](c2ccc(F)cc2)c2c(CNC(=O)CCOCCOCCNC(=O)CCCC[C@@H]3SC[C@@H]4NC(=O)N[C@@H]43)nn(-c3ccccc3)c21` [RG-0014159, N-[(4S,5S)-3-({3-[2-(2-{5-[(3aS,4S,6aR)-2-oxo-hexahydro-1H-thieno[3,4-d]imidazol-4-yl]pentanamido}ethoxy)ethoxy]propanamido}methyl)-7-ethyl-4-(4-fluorophenyl)-6-oxo-1-phenyl-1H,4H,5H,6H,7H-pyrazolo[3,4-b]pyridin-5-yl]-3-(trifluoromethyl)benzamide]: the EC50 was 0.0896 ± 0.0109 µM.

Consider `CCN1C(=O)[C@@H](NC(=O)c2cccc(C(F)(F)F)c2)[C@@H](c2ccc(F)cc2)c2c(C)nn(-c3ccc(C)cc3)c21` [RG-0014036, N-[(4S,5S)-7-ethyl-4-(4-fluorophenyl)-3-methyl-1-(4-methylphenyl)-6-oxo-1H,4H,5H,6H,7H-pyrazolo[3,4-b]pyridin-5-yl]-3-(trifluoromethyl)benzamide], for which the 50% effective concentration (EC50) is 3.21 ± 0.156 µM. Regarding `CCN1C(=O)[C@@H](NC(=O)c2ccc(C)s2)[C@@H](c2ccc(F)cc2)c2c(C)nn(-c3ccccc3)c21` [RG-0014062, N-[(4S,5S)-7-ethyl-4-(4-fluorophenyl)-3-methyl-6-oxo-1-phenyl-1H,4H,5H,6H,7H-pyrazolo[3,4-b]pyridin-5-yl]-5-methylthiophene-2-carboxamide], the EC50 is 2.34 ± 0.0772 µM. As to `CCN1C(=O)[C@@H](NC(=O)c2cccc(C(F)(F)F)c2)[C@@H](c2cccs2)c2c(C)nn(-c3ccccc3)c21` [RG-0013988, N-[(4S,5S)-7-ethyl-3-methyl-6-oxo-1-phenyl-4-(thiophen-2-yl)-1H,4H,5H,6H,7H-pyrazolo[3,4-b]pyridin-5-yl]-3-(trifluoromethyl)benzamide], the EC50 came to 1.33 ± 0.0507 µM. Consider `CCN1C(=O)[C@@H](NC(=O)c2cccc(C(F)(F)F)c2)[C@@H](c2ccc(F)cc2)c2c(CN(C)C)nn(-c3ccccc3)c21` [RG-0014053, N-[(4S,5S)-3-[(dimethylamino)methyl]-7-ethyl-4-(4-fluorophenyl)-6-oxo-1-phenyl-1H,4H,5H,6H,7H-pyrazolo[3,4-b]pyridin-5-yl]-3-(trifluoromethyl)benzamide], for which the EC50 was 0.0907 ± 0.00438 µM. For `CCN1C(=O)[C@@H](NC(=O)c2ccc(F)c(C)c2)[C@@H](c2ccc(F)cc2)c2c(C)nn(-c3ccccc3)c21` [RG-0014168, N-[(4S,5S)-7-ethyl-4-(4-fluorophenyl)-3-methyl-6-oxo-1-phenyl-1H,4H,5H,6H,7H-pyrazolo[3,4-b]pyridin-5-yl]-4-fluoro-3-methylbenzamide] the value was 1.69 ± 0.115 µM. For `CCN1C(=O)[C@@H](NC(=O)c2cccc(C)c2)[C@@H](c2ccc(F)cc2)c2c(C)nn(CC)c21` [RG-0008869, N-[(4S,5S)-1,7-diethyl-4-(4-fluorophenyl)-3-methyl-6-oxo-1H,4H,5H,6H,7H-pyrazolo[3,4-b]pyridin-5-yl]-3-methylbenzamide] the value was 0.384 ± 0.0306 µM; for `Cc1nn(-c2ccccc2)c2c1[C@H](c1ccc(F)cc1)[C@H](NC(=O)c1cccc(C(F)(F)F)c1)C(=O)N2CCNC(=O)OC(C)(C)C` [RG-0014162, tert-butyl N-{2-[(4S,5S)-4-(4-fluorophenyl)-3-methyl-6-oxo-1-phenyl-5-[3-(trifluoromethyl)benzamido]-1H,4H,5H,6H,7H-pyrazolo[3,4-b]pyridin-7-yl]ethyl}carbamate], greater than 13.6 µM; for `CCN1C(=O)[C@@H](NC(=O)c2cccc(C)c2)[C@@H](c2ccc(F)nc2)c2c(C)nn(-c3ccccc3)c21` [RG-0009513, N-[(4S,5S)-7-ethyl-4-(6-fluoropyridin-3-yl)-3-methyl-6-oxo-1-phenyl-1H,4H,5H,6H,7H-pyrazolo[3,4-b]pyridin-5-yl]-3-methylbenzamide], 0.255 ± 0.0282 µM. The value for `CCN1C(=O)[C@@H](NC(=O)c2cccc(C)c2F)[C@@H](c2ccc(F)cc2)c2c(C)nn(-c3ccccc3)c21` [RG-0014165, N-[(4S,5S)-7-ethyl-4-(4-fluorophenyl)-3-methyl-6-oxo-1-phenyl-1H,4H,5H,6H,7H-pyrazolo[3,4-b]pyridin-5-yl]-2-fluoro-3-methylbenzamide] was 0.541 ± 0.0681 µM.

Regarding `CCN1C(=O)[C@@H](NC(=O)c2cccc(C(F)(F)F)c2)[C@@H](c2ccc(F)cc2)c2c(CNS(N)(=O)=O)nn(-c3ccccc3)c21` [RG-0014161, N-[(4S,5S)-7-ethyl-4-(4-fluorophenyl)-6-oxo-1-phenyl-3-[(sulfamoylamino)methyl]-1H,4H,5H,6H,7H-pyrazolo[3,4-b]pyridin-5-yl]-3-(trifluoromethyl)benzamide], the EC50 was 0.145 ± 0.0262 µM.

For `Cc1cccc(C(=O)N[C@@H]2C(=O)N3CCCn4nc(C)c(c43)[C@@H]2c2ccc(F)cc2)c1` [RG-0008682, N-[(5S,6S)-5-(4-fluorophenyl)-3-methyl-7-oxo-1,2,8-triazatricyclo[6.3.1.0^4,^12]dodeca-2,4(12)-dien-6-yl]-3-methylbenzamide], the EC50 was found to be 12.3 µM. For `CCN1C(=O)[C@@H](NC(=O)c2cccc(S(C)(=O)=O)c2)[C@@H](c2ccc(F)cc2)c2c(C)nn(-c3ccccc3)c21` [RG-0013977, N-[(4S,5S)-7-ethyl-4-(4-fluorophenyl)-3-methyl-6-oxo-1-phenyl-1H,4H,5H,6H,7H-pyrazolo[3,4-b]pyridin-5-yl]-3-methanesulfonylbenzamide] the value was greater than 36.5 µM; for `Cc1cccc(C(=O)N[C@@H]2CNc3c(c(C)nn3-c3ccccc3)[C@@H]2c2ccc(F)cc2)c1` [RG-0009506, N-[(4S,5S)-4-(4-fluorophenyl)-3-methyl-1-phenyl-1H,4H,5H,6H,7H-pyrazolo[3,4-b]pyridin-5-yl]-3-methylbenzamide], greater than 36.5 µM; for `C#CCOCc1nn(-c2ccccc2)c2c1[C@H](c1ccc(F)cc1)[C@H](NC(=O)c1cccc(C)c1)C(=O)N2CC` [RG-0013055, N-[(4S,5S)-7-ethyl-4-(4-fluorophenyl)-6-oxo-1-phenyl-3-[(prop-2-yn-1-yloxy)methyl]-1H,4H,5H,6H,7H-pyrazolo[3,4-b]pyridin-5-yl]-3-methylbenzamide], 0.168 ± 0.0081 µM.
